Experimental data published in publication PMC10656311, “Evaluation of the probable synergistic toxicity of selected potentiated antiretroviral and antibiotics on some aquatic biomarker organisms” (Environmental Monitoring and Assessment, 2023).
“And” between values parts separate entries of the source, which are not always exact repeats. Identical values can stand only once. “Also recorded” adds a separate entry of the source. Like-named read-outs stand apart in the source and are kept apart here.

Key:
[1] = tested on: Salmonella typhimurium TA100 P450; assay: Ames mutagenicity test (agar plate method), strain TA100 P450; type: cell-based; details: for mutagenic/cytotoxic effect (in words) / Number of revertant colonies per plate, Mean: TA100 P450; for Number of revertant colonies per plate, NR 1 / Number of revertant colonies per plate, NR 2 / Number of revertant colonies per plate, NR3: TA 100 P450; for Number of revertant colonies per plate, NR 1: plate 1; for Number of revertant colonies per plate, NR 2: plate 2; for Number of revertant colonies per plate, NR3: plate 3
Procedure: (§1) Bacterial growth was confirmed by visual turbidity inspection. […] All experiments were carried out in triplicate.

[2] = tested on: Daphnia magna; details: for Mean mortality (n = 20): five daphnids per well, four replicates
[3] = tested on: Salmonella typhimurium TA100; assay: Ames mutagenicity test (agar plate method), strain TA100; details: for Number of revertant colonies per plate, Mean / Number of revertant colonies per plate, NR 1 / Number of revertant colonies per plate, NR 2 / Number of revertant colonies per plate, NR3 / mutagenic/cytotoxic effect (in words): TA 100; for Number of revertant colonies per plate, NR 1: plate 1; for Number of revertant colonies per plate, NR 2: plate 2; for Number of revertant colonies per plate, NR3: plate 3
Text: The revertant bacteria are detected by their ability to grow in the absence of the amino acid required by the parent test strain. The Ames test method was employed to investigate the potential of a chemical to induce a mutagenic effect in exposed organisms. Three different Salmonella typhimurium bacteria strains ([TA98 P450], [TA100], and [TA100—P450], which simulate metabolic activation) were used in order to account for discrepancies in the way similar organisms (bacteria) may respond to test solutions.
Salmonella typhimurium bacteria were cultured on a freshly prepared nutrient broth medium (Merck, Germany), and allowed to stand overnight. Bacterial growth was confirmed by visual turbidity inspection. […] All experiments were carried out in triplicate. The mutagenicity of the PCs was further classified based on fuzzy logic four-gridded indices (Table 2).
A substance is deemed mutagenic if its mutation rate is twice or more than that of the background.
Salmonella typhimurium bacterial strains TA 98 P450, TA 100, or TA100 P450 were exposed to an equimolar concentration (10 and 100 µg/L) ternary cocktail mixtures of the L, C, and S in the Ames test.

[4] = tested on: root tip meristem cells of Allium cepa; assay: Allium cepa root tip microscopic examination (chromosomal aberrations); type: cell-based; details: 100 µg/L; for chromosomal aberrations observed in root tip meristem: light microscopy
Procedure: (§2) Whole-onions test specimens were grown at room temperature (in triplicate). The onions were initially grown for 2 days in tap water. Prior to growing them in tap water, the ring of the root, the primordia at the bottom of the onion bulb, was scraped with a sterile surgical blade to remove all existing root growth. After 2 days of tap water exposure, the lengths of the root fibers of each onion were measured and recorded. This was followed by exposure to the test solutions for another 2 days (tap water was used as the control). […] At the end of the exposure, the onion roots were cut 3 cm from the tip and placed in Carnoy’s fixative solution ([…] (Merck, Germany)) until further microscopic analysis.
This was followed by washing the root tips in distilled water, after which they were stained using Feulgen stain for 2–3 min. The stained root tips were then rinsed in distilled water, transferred onto clean glass microscope slides, and counter-stained with acetocarmine. […] The squashed onion root tips were thereafter imaged using a LEICA DM-750 light microscope at × 400 and × 1000 magnifications.
Microscopic evaluation of Allium cepa cells during mitosis was conducted to ascertain the impacts the L, C, and S test samples (lone and mixtures) will have on the genetic materials of the onion roots at cellular levels.

[5] = tested on: Salmonella typhimurium TA98 P450; type: cell-based; details: for Number of revertant colonies per plate, NR 1: plate 1; for Number of revertant colonies per plate, NR 2: plate 2; for Number of revertant colonies per plate, NR3: plate 3
Procedure: as §1

[6] = tested on: Allium cepa; assay: Allium cepa root length assay (phytotoxic inhibition of root growth); type: in vivo
Procedure: as §2
The test APCs and their mixtures in different combinations were investigated for their phytotoxic characteristics at 10 µg/L and 100 µg/L concentrations, using A. cepa bioassays. The root length assay relies on evaluating the root length of A. cepa as an indicator endpoint to assess the susceptibility of plants exposed to xenobiotics by evaluating physical impacts on their root growth. The ratio between the root length (mm) (RRL) after and before exposure to test solutions ( ^RLAERLBE ) was used as indices for the APCs’ phytotoxicity.

O=C(O)c1cn(C2CC2)c2cc(N3CCNCC3)c(F)cc2c1=O [Ciprofloxacin, ciprofloxacin]
mutagenic/cytotoxic effect (in words) ([1]; 10 µg/L): did not exert either mutagenic or cytotoxic effects | mutagenic/cytotoxic effect (in words) ([1]; 100 µg/L): did not individually exert cytotoxicity | Mean % mortality ([2]; 10 µg/L, 24 h): 10% | Mean mortality (n = 20) ([2]; 10 µg/L, 24 h): 0.50 ± 0.58 | Mean % mortality ([2]; 10 µg/L, 48 h): 55% | Mean mortality (n = 20) ([2]; 10 µg/L, 48 h): 2.75 ± 0.50 | Mean % mortality ([2]; 100 µg/L, 24 h): 50% | Mean mortality (n = 20) ([2]; 100 µg/L, 24 h): 2.5 ± 1.73 | Mean % mortality ([2]; 100 µg/L, 48 h): 75% | Mean mortality (n = 20) ([2]; 100 µg/L, 48 h): 3.75 ± 1.26 | Number of revertant colonies per plate, Mean ([3]; 10 µg/L): 140 | Number of revertant colonies per plate, NR 1 ([3]; 10 µg/L): 140 | Number of revertant colonies per plate, NR 2 ([3]; 10 µg/L): 170 | Number of revertant colonies per plate, NR3 ([3]; 10 µg/L): 110 | Number of revertant colonies per plate, Mean ([3]; 100 µg/L): 140 | mutagenic/cytotoxic effect (in words) ([3]; 100 µg/L): did not individually exert cytotoxicity | Number of revertant colonies per plate, NR 1 ([3]; 100 µg/L): 130 | Number of revertant colonies per plate, NR 2 ([3]; 100 µg/L): 140 | Number of revertant colonies per plate, NR3 ([3]; 100 µg/L): 150 | chromosomal aberrations observed in root tip meristem [4]: uncoiling chromosome/irregular prophase | mutagenic/cytotoxic effect (in words) ([5]; 10 µg/L): did not exert either mutagenic or cytotoxic effects | mutagenic/cytotoxic effect (in words) ([5]; 100 µg/L): to a much lesser extent mutagenic; also recorded: did not individually exert cytotoxicity; also recorded: some level of mutagenic activities

Nc1ccn([C@@H]2CS[C@H](CO)O2)c(=O)n1 [Lamivudine, lamivudine]
Number of revertant colonies per plate, Mean ([1]; 10 µg/L): 233 | mutagenic/cytotoxic effect (in words) ([1]; 10 µg/L): did not exert either mutagenic or cytotoxic effects | Number of revertant colonies per plate, NR 1 ([1]; 10 µg/L): 200 | Number of revertant colonies per plate, NR 2 ([1]; 10 µg/L): 200 | Number of revertant colonies per plate, NR3 ([1]; 10 µg/L): 300 | Number of revertant colonies per plate, Mean ([1]; 100 µg/L): 300 | Number of revertant colonies per plate, NR 1 ([1]; 100 µg/L): 210 | Number of revertant colonies per plate, NR 2 ([1]; 100 µg/L): 310 | Number of revertant colonies per plate, NR3 ([1]; 100 µg/L): 380 | Mean % mortality ([2]; 10 µg/L, 24 h): 10% | Mean mortality (n = 20) ([2]; 10 µg/L, 24 h): 0.50 ± 0.60 | Mean % mortality ([2]; 10 µg/L, 48 h): 45% | Mean mortality (n = 20) ([2]; 10 µg/L, 48 h): 2.30 ± 1.00 | Mean % mortality ([2]; 100 µg/L, 24 h): 85% | Mean mortality (n = 20) ([2]; 100 µg/L, 24 h): 4.30 ± 1.00 | Mean % mortality ([2]; 100 µg/L, 48 h): 100% | Mean mortality (n = 20) ([2]; 100 µg/L, 48 h): 5.00 ± 0.00 | LD50 as log concentration ([2]; 24 h): 1.533 log conc. (ppb) | LD50 as log concentration ([2]; 48 h): 1.091 log conc. (ppb) and 1.09 log conc. (ppb) | Toxic unit 24 hrs ([2]; toxic unit of the constituent in the LCS mixture, 24 h): 1.12 | Toxic unit 48 hrs ([2]; toxic unit of the constituent in the LCS mixture, 48 h): 1.93 | Ames test (mutagenicity) TA 100 [3]: b (key: Toxic (a) x<0.5; No mutagenicity (b) x≥0.5≤1.5; Mutagenic to a lesser extent (c) x>1.5<2.0; Significantly mutagenic (d) x≥2.0) | Number of revertant colonies per plate, Mean ([3]; 10 µg/L): 160 | mutagenic/cytotoxic effect (in words) ([3]; 10 µg/L): did not exert either mutagenic or cytotoxic effects | Number of revertant colonies per plate, NR 1 ([3]; 10 µg/L): 190 | Number of revertant colonies per plate, NR 2 ([3]; 10 µg/L): 150 | Number of revertant colonies per plate, NR3 ([3]; 10 µg/L): 140 | Number of revertant colonies per plate, Mean ([3]; 100 µg/L): 163 | Number of revertant colonies per plate, NR 1 ([3]; 100 µg/L): 180 | Number of revertant colonies per plate, NR 2 ([3]; 100 µg/L): 150 | Number of revertant colonies per plate, NR3 ([3]; 100 µg/L): 160 | A. cepa root exposure R.L ([6]; 10 µg/L): - | A. cepa root exposure R.L ([6]; 100 µg/L): + | A. cepa root exposure C.A (chromosomal aberration) [4]: + | chromosomal aberrations observed in root tip meristem [4]: irregular prophase and metaphase | Number of revertant colonies per plate, Mean ([5]; 10 µg/L): 16 | mutagenic/cytotoxic effect (in words) ([5]; 10 µg/L): did not exert either mutagenic or cytotoxic effects | Number of revertant colonies per plate, NR 1 ([5]; 10 µg/L): 13 | Number of revertant colonies per plate, NR 2 ([5]; 10 µg/L): 23 | Number of revertant colonies per plate, NR3 ([5]; 10 µg/L): 13 | Number of revertant colonies per plate, Mean ([5]; 100 µg/L): 18 | mutagenic/cytotoxic effect (in words) ([5]; 100 µg/L): to a much lesser extent mutagenic; also recorded: some level of mutagenic activities | Number of revertant colonies per plate, NR 1 ([5]; 100 µg/L): 20 | Number of revertant colonies per plate, NR 2 ([5]; 100 µg/L): 15 | Number of revertant colonies per plate, NR3 ([5]; 100 µg/L): 18

Cc1cc(NS(=O)(=O)c2ccc(N)cc2)no1 [Sulfamethoxazole, sulfamethoxazole]
Mean % mortality ([2]; 10 µg/L, 24 h): 15% | Mean mortality (n = 20) ([2]; 10 µg/L, 24 h): 0.75 ± 0.50 | Mean % mortality ([2]; 10 µg/L, 48 h): 30% | Mean mortality (n = 20) ([2]; 10 µg/L, 48 h): 1.50 ± 1.73 | Mean % mortality ([2]; 100 µg/L, 24 h): 50% | Mean mortality (n = 20) ([2]; 100 µg/L, 24 h): 2.50 ± 0.58 | Mean % mortality ([2]; 100 µg/L, 48 h): 95% | Mean mortality (n = 20) ([2]; 100 µg/L, 48 h): 4.75 ± 0.50 | Number of revertant colonies per plate, Mean ([3]; 10 µg/L): 123 | Number of revertant colonies per plate, NR 1 ([3]; 10 µg/L): 100 | Number of revertant colonies per plate, NR 2 ([3]; 10 µg/L): 150 | Number of revertant colonies per plate, NR3 ([3]; 10 µg/L): 120 | Number of revertant colonies per plate, Mean ([3]; 100 µg/L): 117 | Number of revertant colonies per plate, NR 1 ([3]; 100 µg/L): 110 | Number of revertant colonies per plate, NR 2 ([3]; 100 µg/L): 110 | Number of revertant colonies per plate, NR3 ([3]; 100 µg/L): 130 | chromosomal aberrations observed in root tip meristem [4]: vagrant chromosome in anaphase and alignment anaphase
